Reference: patent publication US8906929B2, “Inhibitors of human immunodeficiency virus replication” (priority 2012, dated 2014)

System: recombinant NL-Rluc virus
Experiment: Inhibition of HIV replication (NL-RLuc virus in MT-2 cells, luciferase readout)
Type: cell-based
Settings: 5 days of incubation, 10% FBS
[1] = Human immunodeficiency virus 1, MT2, 120 h

Cc1nc2cc3nn2c(c1[C@H](OC(C)(C)C)C(=O)O)N1CCC(C)(CC1)OCCCCOc1ccc(F)cc1-c1cccc-3c1 [Example 63, (2S)-2-(tert-Butoxy)-2-{17-fluoro-4,27-dimethyl-21,26-dioxa-1,5,7,8-tetraazahexacyclo[25.2.2.1^6,^9.1^10,^14.0^2,^7.0^15,^20]tritriaconta-2,4,6(33),8,10(32),11,13,15(20),16,18-decaen-3-yl}acetic acid]
EC50 [1]: 7 nM

Cc1cccc2c1-c1cccc(c1)-c1cc3nc(C)c([C@H](OC(C)(C)C)C(=O)O)c(n3n1)N1CCC(C)(CC1)OCCCC[C@H](C)O2 [Example 77, (2S)-2-(tert-Butoxy)-2-[(22S)-4,16,22,28-tetramethyl-21,27-dioxa-1,5,7,8-tetraazahexacyclo[26.2.2.1^6,^9.1^10,^14.0^2,^7.0^15,^20]tetratriaconta-2,4,6(34),8,10(33), 11, 13, 15(20),16,18-decaen-3-yl]acetic acid]
EC50 [1]: 21 nM

Cc1ccc2c(c1)-c1cccc(c1)-c1cc3nc(C)c([C@H](OC(C)(C)C)C(=O)O)c(n3n1)N1CCC(C)(CC1)OC=CCCO2 [Example 34, (2S)-2-(tert-Butoxy)-2-[4,17,27-trimethyl-21,26-dioxa-1,5,7,8-tetraazahexacyclo[25.2.2.1^6,^9.1^10,^14.0^2,^7.0^15,^20]tritriaconta-2,4,6(33),8,10(32),11,13,15(20),16,18,24-undecaen-3-yl]acetic acid]
EC50 [1]: 14 nM

Cc1nc2cc3nn2c(c1[C@H](OC(C)(C)C)C(=O)O)N1CCC(C)(CCCCCOc2ccc(Cl)cc2-c2cccc-3c2)CC1 [Example 44, (2S)-2-(tert-Butoxy)-2-{17-chloro-4,27-dimethyl-21-oxa-1,5,7,8-tetraazahexacyclo[25.2.2.1^6,^9.1^10,^14.0^2,^7.0^15,^20]tritriaconta-2,4, 6(33), 8, 10(32), 11, 13, 15 (20),16,18-decaen-3-yl}acetic acid]
EC50 [1]: 41 nM

Cc1nc2cc3nn2c(c1[C@H](OC(C)(C)C)C(=O)O)N1CCC(C)(CC1)OCCCCCCc1ccccc1-c1cccc-3c1 [Example 30, (2S)-2-(tert-Butoxy)-2-{4,28-dimethyl-27-oxa-1,5,7,8-tetraazahexacyclo[26.2.2.1^6,^9.1^10,^14.0^2,^7.0^15,^20]tetratriaconta-2,4,6(34),8,10(33), 11, 13, 15(20),16,18-decaen-3-yl}acetic acid]
EC50 [1]: 27 nM

Cc1nc2cc3nn2c(c1[C@H](OC(C)(C)C)C(=O)O)N1CCC(C)(CC1)OCCCC[C@H](C)Oc1ccc(F)cc1-c1cccc-3c1 [Example 81, (2S)-2-(tert-Butoxy)-2-[(22S)-17-fluoro-4,22,28-trimethyl-21,27-dioxa-1,5,7,8-tetraazahexacyclo[26.2.2.1^6,^9.1^10,^14.0^2,^7.0^15,^20]tetratriaconta-2,4,6(34),8,10(33),11,13, 15(20),16,18-decaen-3-yl]acetic acid]
EC50 [1]: 13 nM

Cc1nc2cc3nn2c(c1[C@H](OC(C)(C)C)C(=O)O)N1CCC(C)(CC1)OCC=CC[C@H](C)Oc1ccc(C(N)=O)cc1-c1cccc-3c1 [Example 72, (2S)-2-(tert-Butoxy)-2-[(22S)-17-carbamoyl-4,22,27-trimethyl-21,26-dioxa-1,5,7,8-tetraazahexacyclo[25.2.2.1^6,^9.1^10,^14.0^2,^7.0^15,^20]tritriaconta-2,4, 6(33), 8, 10(32), 11, 13, 15(20),16,18,23-undecaen-3-yl]acetic acid]
EC50 [1]: 15 nM

Cc1nc2cc3nn2c(c1[C@H](OC(C)(C)C)C(=O)O)N1CCC(C)(CC1)COCCCCCc1ccccc1-c1cccc-3c1 [Example 106]
EC50 [1]: 89 nM

Cc1nc2cc3nn2c(c1[C@H](OC(C)(C)C)C(=O)O)-c1ccc2c(c1Cl)N(CCCCOc1cccc(c1)-c1cccc-3c1)CCO2 [Example 3, (2S)-2-(tert-Butoxy)-2-{32-chloro-4-methyl-20,28-dioxa-5,7,8,25-tetraazaheptacyclo[23.6.2.1^6,^9.1^10,^14.1^15,^19.0^2,^7.0^29,^33]hexatriaconta-1(31), 2,4, 6(36), 8, 10(35), 11, 13, 15 (34), 16,18,29,32-tridecaen-3-yl}acetic acid]
EC50 [1]: 418 nM

Cc1nc2cc3nn2c(c1[C@H](OC(C)(C)C)C(=O)O)N1CCC(C)(CC1)OCCCC[C@H](C)Oc1cc(Cl)ccc1-c1cccc-3c1 [Example 86, (2S)-2-(tert-Butoxy)-2-[(22S)-18-chloro-4,22,28-trimethyl-21,27-dioxa-1,5,7,8-tetraazahexacyclo[26.2.2.1^6,^9. 1^10,^14.0^2,^7.0^15,^20]tetratriaconta-2,4,6(34),8,10(33), 11, 13, 15 (20),16,18-decaen-3-yl]acetic acid]
EC50 [1]: 52 nM

Cc1cc2c(cc1F)-c1cccc(c1)-c1cc3nc(C)c([C@H](OC(C)(C)C)C(=O)O)c(n3n1)N1CCC(C)(CC1)OCCCC[C@H](C)O2 [Example 91, (2S)-2-(tert-Butoxy)-2-[(22S)-17-fluoro-4,18,22,28-tetramethyl-21,27-dioxa-1,5,7,8-tetraazahexacyclo[26.2.2.1^6,^9.1^10,^14.0^2,^7.0^15,^20]tetratriaconta-2,4,6(34),8,10(33), 11, 13, 15(20),16,18-decaen-3-yl]acetic acid]
EC50 [1]: 47 nM

CCC(C)(C)O[C@H](C(=O)O)c1c(C)nc2cc3nn2c1N1CCC(C)(CC1)OCCCC[C@H](C)Oc1ccc(C)cc1-c1cccc-3c1 [Example 96, (2S)-2-[(2-Methylbutan-2-yl)oxy]-2-[(22S)-4,17,22,28-tetramethyl-21,27-dioxa-1,5,7,8-tetraazahexacyclo[26.2.2.1^6,^9.1^10,^14.0^2,^7.0^15,^20]tetratriaconta-2,4,6(34),8,10(33), 11, 13, 15 (20),16,18-decaen-3-yl]acetic acid]
EC50 [1]: 36 nM

Cc1nc2cc3nn2c(c1[C@H](OC(C)(C)C)C(=O)O)N1CCC(C)(CC1)OC/C=C/COc1ccccc1-c1cccc-3c1 [Example 20, (2S)-2-(tert-Butoxy)-2-[(23E)-4,27-dimethyl-21,26-dioxa-1,5,7,8-tetraazahexacyclo[25.2.2.1^6,^9.1^10,^14.0^2,^7.0^15,^20]tritriaconta-2,4,6(33),8,10(32),11,13,15(20),16,18,23-undecaen-3-yl]acetic acid]
EC50 [1]: 5 nM

Cc1nc2cc3nn2c(c1[C@H](OC(C)(C)C)C(=O)O)N1CCC(C)(CC1)OCCCC[C@H](C)Oc1ccc(C#N)cc1-c1cccc-3c1 [Example 73, (2S)-2-(tert-Butoxy)-2-[(22S)-17-cyano-4,22,28-trimethyl-21,27-dioxa-1,5,7,8-tetraazahexacyclo[26.2.2.1^6,^9.1^10,^14.0^2,^7.0^15,^20]tetratriaconta-2,4,6(34),8,10(33), 11, 13, 15(20),16,18-decaen-3-yl]acetic acid]
EC50 [1]: 6 nM

Cc1nc2cc3nn2c(c1[C@H](OC(C)(C)C)C(=O)O)N1CCC(C)(CC1)OCCCCOc1cc(F)ccc1-c1cccc-3c1 [Example 49, (2S)-2-(tert-Butoxy)-2-{18-fluoro-4,27-dimethyl-21,26-dioxa-1,5,7,8-tetraazahexacyclo[25.2.2.1^6,^9.1^10,^14.0^2,^7.0^15,^20]tritriaconta-2,4,6(33),8,10(32),11,13,15(20),16,18-decaen-3-yl}acetic acid]
EC50 [1]: 9 nM

Cc1nc2cc3nn2c(c1[C@H](OC(C)(C)C)C(=O)O)N1CCC(C)(CC1)OC/C=C\CCc1ccncc1-c1cccc-3c1 [Example 37, (2S)-2-(tert-Butoxy)-2-[(23Z)-4,27-dimethyl-26-oxa-1,5,7,8,17-pentaazahexacyclo[25.2.2.1^6,^9.1^10,^14.0^2,^7.0^15,^20]tritriaconta-2,4,6(33),8,10(32), 11, 13, 15(20),16,18,23-undecaen-3-yl]acetic acid]
EC50 [1]: 2 nM

Cc1ccc2c(c1)-c1cccc(c1)-c1cc3nc(C)c([C@H](OC(C)(C)C)C(=O)O)c(n3n1)N1CCC(C)(CC1)OCCCC(C)CO2 (single isomer, unassigned) [Example 104]
EC50: 26 nM

Cc1cc2c(cc1Cl)-c1cccc(c1)-c1cc3nc(C)c([C@H](OC(C)(C)C)C(=O)O)c(n3n1)N1CCC(C)(CC1)OCCCC[C@H](C)O2 [Example 88, (2S)-2-(tert-Butoxy)-2-[(22S)-17-chloro-4,18,22,28-tetramethyl-21,27-dioxa-1,5,7,8-tetraazahexacyclo[26.2.2.1^6,^9.1^10,^14.0^2,^7.0^15,^20]tetratriaconta-2,4, 6(34), 8, 10(33), 11, 13, 15 (20),16,18-decaen-3-yl]acetic acid]
EC50 [1]: 86 nM

Cc1ccc2c(c1F)-c1cccc(c1)-c1cc3nc(C)c([C@H](OC(C)(C)C)C(=O)O)c(n3n1)N1CCC(C)(CC1)OC/C=C\C[C@H](C)O2 [Example 69, (2S)-2-(tert-Butoxy)-2-[(22S,24Z)-16-fluoro-4,17,22,28-tetramethyl-21,27-dioxa-1,5,7,8-tetraazahexacyclo[26.2.2.1^6,^9.1^10,^14.0^2,^7.0^15,^20]tetratriaconta-2,4,6(34),8,10(33), 11, 13, 15 (20),16,18,24-undecaen-3-yl]acetic acid]
EC50 [1]: 21 nM

Cc1nc2cc3nn2c(c1[C@H](OC(C)(C)C)C(=O)O)N1CCC(C)(CC1)OCC=C[C@H](C)Oc1ccccc1-c1cccc-3c1 [Example 23, (2S)-2-(tert-Butoxy)-2-[(22S)-4,22,27-trimethyl-21,26-dioxa-1,5,7,8-tetraazahexacyclo[25.2.2.1^6,^9.1^10,^14.0^2,^7.0^15,^20]tritriaconta-2,4,6(33),8,10(32),11,13,15(20),16,18,23-undecaen-3-yl]acetic acid]
EC50 [1]: 11 nM

Cc1nc2cc3nn2c(c1[C@H](OC(C)(C)C)C(=O)O)N1CCC(C)(CC1)OCCCC[C@@H](C)Oc1ccccc1-c1cccc-3c1 [Example 28, (2S)-2-(tert-Butoxy)-2-[(22R)-4,22,28-trimethyl-21,27-dioxa-1,5,7,8-tetraazahexacyclo[26.2.2.1^6,^9.1^10,^14.0^2,^7.0^15,^20]tetratriaconta-2,4,6(34),8,10(33), 11, 13, 15 (20),16,18-decaen-3-yl]acetic acid]
EC50 [1]: 40 nM

Cc1nc2cc3nn2c(c1[C@H](OC(C)(C)C)C(=O)O)N1CCC(C)(/C=C/C=C\CCc2ccccc2-c2cccc-3c2)CC1 [Example 39, (2S)-2-(tert-Butoxy)-2-[(23Z,25E)-4,27-dimethyl-1,5,7,8-tetraazahexacyclo[25.2.2.1^6,^9.1^10,^14.0^2,^7.0^15,^20]tritriaconta-2,4,6(33),8,10(32),11,13, 15(20), 16,18,23,25-dodecaen-3-yl]acetic acid]
EC50 [1]: 118 nM
